Here are results for two compounds from patent publication US10906906B2, “Organic compounds” (INTRA-CELLULAR THERAPIES, INC., priority 2016, dated 2021).

The target in the experiment is μ (MOP) (h) receptor (Homo sapiens, UniProt P35372). Briefly: Cellular functional assay, μ (MOP) (h) antagonist effect (cAMP, HTRF). It is filed as cell-based. To be noted: human recombinant (CHO cells). The procedure: The compounds are tested at several concentrations to determine their IC50 or EC50. Cellular agonist effects are calculated as percent of control response to a known reference agonist for each target and cellular antagonist effect is calculated as a percent inhibition of control reference agonist response for each target. The following assay is performed to determine the effect of the Compound of Formula II-B on the μ (MOP) (h) receptor: [table] The results are expressed as a percent of control agonist response: and as a percent inhibition of control agonist response: obtained in the presence of the Compound of Formula II-B or II-C. […] For the antagonists, the apparent dissociation constants (KB) are calculated using the modified Cheng Prusoff equation: [formula] where A=concentration of reference agonist in the assay, and E[…]=EC50 value of the reference agonist.
μ (MOP) (h) receptor, sequence (P35372 whole entry): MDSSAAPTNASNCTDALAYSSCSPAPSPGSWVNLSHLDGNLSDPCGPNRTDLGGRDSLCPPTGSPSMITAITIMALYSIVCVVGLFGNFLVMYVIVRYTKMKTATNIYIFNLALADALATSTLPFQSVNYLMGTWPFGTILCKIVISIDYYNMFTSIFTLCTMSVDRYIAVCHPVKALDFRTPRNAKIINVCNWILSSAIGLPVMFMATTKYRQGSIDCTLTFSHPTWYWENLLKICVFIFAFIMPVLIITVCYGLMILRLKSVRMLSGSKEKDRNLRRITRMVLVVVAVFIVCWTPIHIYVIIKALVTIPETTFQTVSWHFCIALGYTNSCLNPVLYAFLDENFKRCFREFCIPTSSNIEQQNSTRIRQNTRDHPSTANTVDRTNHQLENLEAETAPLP

With `Fc1ccc2c(CCCN3CC[C@H]4[C@@H](C3)c3cccc5c3N4CCN5)n[nH]c2c1` [Formula II-C], where the note is “unit inferred, highest concentration tested, DAMGO (20 nM)”, the IC50 is > 10000 nM. With `CN1C(=O)CN2c3c(cccc31)[C@@H]1CN(CCCc3n[nH]c4cc(F)ccc34)CC[C@@H]12` [Formula II-B], where the note is “DAMGO (20 nM) stimulus, cAMP, 10 min @ 37° C.”, the 50% inhibitory concentration (IC50) is 1300 nM. Besides, the Kb (modified Cheng Prusoff equation, DAMGO (20 nM), read-out: μ (MOP) (h) (antagonist effect) KB (apparent dissociation constant)) amounted to 140 nM.
